This passage reports EC50 results from US9738642B2, “Triazolopyridine ether derivatives and their use in neurological and pyschiatric disorders” (BRISTOL-MYERS SQUIBB COMPANY, priority 2013, dated 2017).

Counter-ions that a name gives are not always drawn.

The target in this test is T1, human mGluR2 (Homo sapiens, UniProt Q14416).
T1 construct: expressed in transfected cells; host or cells: HEK293 clonal line
As to the kind of experiment: mGluR2 cAMP assay. In kind it is cell-based. Particulars: clonally expressed human mGluR2 in HEK293; 1 μM forskolin, 1 μM LY-341495, 30 min; CISBIO cAMP kit; read-out: EC50 (nM), activity in mGluR2 cAMP assay. As for the experimental part: On the day of the assay, media was removed, cells washed with PBS, cells harvested and pelleted by centrifugation. Cell pellets were resuspended in stimulation buffer without forskolin and counted. […] A standard curve was created using a top concentration of cAMP of 1 μM in the stimulation buffer, 1:3 dilutions over 14 points in the absence of cells. […] In house software converted the fluorescence value ratios to units of cAMP concentration, which is then used to calculate % inhibition for each test compound. MGluR2 cAMP Assay Materials and Methods. […] Buffer without forskolin was used as a negative control. Solutions of D2 and cryptate detection reagents from the CISBIO dynamic cAMP kit (62AM4PEJ) were diluted 1:40 in lysis buffer. Lysis buffer consisted of 50 mM Phosphate Buffer pH 7.0, 800 mM Potassium Fluoride, 0.2% BSA, and 1.0% Triton. Assay reaction was terminated by addition of detection reagents in lysis buffer. One hour later, plates were read on a PE Viewlux. Data was extracted, and concentration response curves generated by fitting the data to a standard 4 parameter logistic equation from which EC50 values were determined.

T1 sequence (Q14416 19-872): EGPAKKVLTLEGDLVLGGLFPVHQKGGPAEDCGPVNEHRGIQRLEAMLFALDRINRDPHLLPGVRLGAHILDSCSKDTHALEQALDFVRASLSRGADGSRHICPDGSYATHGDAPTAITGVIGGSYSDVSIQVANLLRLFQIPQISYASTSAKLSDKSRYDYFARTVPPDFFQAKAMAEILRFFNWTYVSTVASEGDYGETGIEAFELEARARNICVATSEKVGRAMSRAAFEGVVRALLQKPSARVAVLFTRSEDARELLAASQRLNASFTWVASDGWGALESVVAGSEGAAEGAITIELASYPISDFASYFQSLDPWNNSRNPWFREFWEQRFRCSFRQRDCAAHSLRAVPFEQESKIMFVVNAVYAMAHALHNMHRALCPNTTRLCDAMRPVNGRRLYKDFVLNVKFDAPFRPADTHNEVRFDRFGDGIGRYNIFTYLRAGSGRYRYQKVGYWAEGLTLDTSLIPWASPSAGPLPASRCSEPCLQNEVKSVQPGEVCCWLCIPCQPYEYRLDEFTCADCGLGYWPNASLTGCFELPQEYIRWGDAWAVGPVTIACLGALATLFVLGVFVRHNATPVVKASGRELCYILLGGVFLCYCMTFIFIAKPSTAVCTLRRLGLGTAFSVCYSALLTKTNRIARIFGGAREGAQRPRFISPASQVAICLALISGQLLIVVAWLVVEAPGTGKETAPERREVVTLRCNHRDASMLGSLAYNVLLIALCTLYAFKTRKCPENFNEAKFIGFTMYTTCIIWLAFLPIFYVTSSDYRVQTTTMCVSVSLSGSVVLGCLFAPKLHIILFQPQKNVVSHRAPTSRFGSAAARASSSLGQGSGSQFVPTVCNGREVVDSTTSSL

Regarding `FC(F)(F)Oc1ccccc1[C@H]1C[C@@H]1COc1ccn2c(CC3CC3)nnc2c1C(F)(F)F` (single isomer, unassigned) [Example 41], the EC50 was 2.2 nM. Next, `FC(F)(F)Oc1ccccc1[C@@H]1C[C@H]1COc1ccn2c(CC3CC3)nnc2c1C(F)(F)F` (single isomer, unassigned) [Example 42]: 1.9 nM. Next, `Fc1ccc(C2CC2COc2ccn3c(CC4CC4)nnc3c2C(F)(F)F)cc1` (single isomer, unassigned) [Example 78]: 2.6 nM. Next, `Fc1ccc([C@@H]2C[C@H]2COc2ccn3c(CC4CC4)nnc3c2C(F)(F)F)cc1` (single isomer, unassigned) [Example 79]: 1.1 nM. As to `CO[C@]1(c2ccc(F)cc2)CC[C@H](Oc2ccn3c(C4CC4(F)F)nnc3c2C(F)(F)F)CC1` (single isomer, unassigned) [Example 87, TFA salt], the 50% effective concentration (EC50) turned out to be 61 nM. Consider `CO[C@]1(c2ccc(F)cc2)CC[C@H](Oc2ccn3c(C4CC4(F)F)nnc3c2C(F)(F)F)CC1` (single isomer, unassigned) [Example 88, TFA salt], for which the EC50 stood at 3.1 nM. Take `FC(F)(F)c1c(OCC2(c3ccccc3)CCCCC2)ccn2c(CC3CC3)nnc12` [Example 1, 3-(Cyclopropylmethyl)-7-((1-phenylcyclohexyl)methoxy)-8-(trifluoromethyl)-[1,2,4]triazolo[4,3-a]pyridine]: the EC50 is 1.8 nM. With `CC(C)(COc1ccn2c(CC3CC3)nnc2c1C(F)(F)F)c1ccc(Cl)cc1` [Example 2, 7-(2-(4-Chlorophenyl)-2-methylpropoxy)-3-(cyclopropylmethyl)-8-(trifluoromethyl)-[1,2,4]triazolo[4,3-a]pyridine], the EC50 was 5.5 nM. Next, `N#Cc1c(OC[C@H]2C[C@@H]2c2ccc(F)cc2)ccn2c(CC3CC3)nnc12` [Example 3, 3-(Cyclopropylmethyl)-7-(((1S,2S)-2-(4-fluorophenyl)cyclopropyl)methoxy)-[1,2,4]triazolo[4,3-a]pyridine-8-carbonitrile]: 11 nM. For `CC(C)(COc1ccn2c(CC3CC3)nnc2c1C(F)(F)F)c1ccc(F)cc1` [Example 6, 3-(Cyclopropylmethyl)-7-(2-(4-fluorophenyl)-2-methylpropoxy)-8-(trifluoromethyl)-[1,2,4]triazolo[4,3-a]pyridine], the EC50 came to 11 nM. Next, `CC(C)(COc1ccn2c(CC(F)(F)F)nnc2c1C(F)(F)F)c1ccc(Cl)cc1` [Example 7, 7-(2-(4-Chlorophenyl)-2-methylpropoxy)-3-(2,2,2-trifluoroethyl)-8-(trifluoromethyl)-[1,2,4]triazolo[4,3-a]pyridine]: 13 nM. Next, `CC(C)(COc1ccn2c(CC3CC3)nnc2c1C(F)(F)F)Oc1ccc(F)cc1` [Example 8, 3-(Cyclopropylmethyl)-7-(2-(4-fluorophenoxy)-2-methylpropoxy)-8-(trifluoromethyl)-[1,2,4]triazolo[4,3-a]pyridine]: 11 nM; `CC(C)(COc1ccn2c(CC(F)(F)F)nnc2c1C(F)(F)F)Oc1ccc(F)cc1` [Example 11, 7-(2-(4-Fluorophenoxy)-2-methylpropoxy)-3-(2,2,2-trifluoroethyl)-8-(trifluoromethyl)-[1,2,4]triazolo[4,3-a]pyridine]: 18 nM; `CC(C)(COc1ccn2c(CC3CC3)nnc2c1C(F)(F)F)Oc1ccc(Cl)cc1` [Example 13, 7-(2-(4-Chlorophenoxy)-2-methylpropoxy)-3-(cyclopropylmethyl)-8-(trifluoromethyl)-[1,2,4]triazolo[4,3-a]pyridine]: 13 nM.

`CC(C)(COc1ccn2c(CC3CC3)nnc2c1C(F)(F)F)Oc1ccc(F)cc1F` [Example 16, 3-(Cyclopropylmethyl)-7-(2-(2,4-difluorophenoxy)-2-methylpropoxy)-8-(trifluoromethyl)-[1,2,4]triazolo[4,3-a]pyridine]: the EC50 was found to be 15 nM.

For `N#C[C@]1(c2ccc(F)cc2)CC[C@H](Oc2ccn3c(CC4CC4)nnc3c2C(F)(F)F)CC1` [Example 17, (1s,4s)-4-(3-(Cyclopropylmethyl)-8-(trifluoromethyl)-[1,2,4]triazolo[4,3-a]pyridin-7-yloxy)-1-(4-fluorophenyl)cyclohexanecarbonitrile], the 50% effective concentration (EC50) stood at 1.4 nM.

For the molecule `CCOCc1nnc2c(C(F)(F)F)c(OCC(C)(C)Oc3ccc(Cl)cc3)ccn12` [Example 18, 7-(2-(4-Chlorophenoxy)-2-methylpropoxy)-3-(ethoxymethyl)-8-(trifluoromethyl)-[1,2,4]triazolo[4,3-a]pyridine], the EC50 was 5.9 nM.

Regarding `CO[C@]1(c2ccc(F)cc2)CC[C@H](Oc2ccn3c(CC4CC4)nnc3c2C(F)(F)F)CC1` [Example 19, 3-(Cyclopropylmethyl)-7-((1s,4s)-4-(4-fluorophenyl)-4-methoxycyclohexyloxy)-8-(trifluoromethyl)-[1,2,4]triazolo[4,3-a]pyridine], the concentration for a half-maximal effect (EC50) came out at 0.3 nM. Take `FC(F)(F)c1c(O[C@H]2CC[C@H](c3ccccc3)CC2)ccn2c(CC3CC3)nnc12` [Example 20, 3-(Cyclopropylmethyl)-7-((1r,4r)-4-phenylcyclohexyloxy)-8-(trifluoromethyl)-[1,2,4]triazolo[4,3-a]pyridine]: the EC50 stood at 0.4 nM. Take `CC(C)(COc1ccn2c(COCC(F)(F)F)nnc2c1C(F)(F)F)Oc1ccc(Cl)cc1` [Example 22, 7-(2-(4-Chlorophenoxy)-2-methylpropoxy)-3-((2,2,2-trifluoroethoxy)methyl)-8-(trifluoromethyl)-[1,2,4]triazolo[4,3-a]pyridine, TFA salt]: the concentration for a half-maximal effect (EC50) was found to be 4.9 nM. As to `COCc1nnc2c(C(F)(F)F)c(OCC(C)(C)Oc3ccc(Cl)cc3)ccn12` [Example 23, 7-(2-(4-Chlorophenoxy)-2-methylpropoxy)-3-(methoxymethyl)-8-(trifluoromethyl)-[1,2,4]triazolo[4,3-a]pyridine, TFA salt], the EC50 is 120 nM. Take `O[C@]1(c2ccc(F)c(F)c2)CC[C@H](Oc2ccn3c(CC4CC4)nnc3c2C(F)(F)F)CC1` [Example 26, (1s,4s)-4-(3-(Cyclopropylmethyl)-8-(trifluoromethyl)-[1,2,4]triazolo[4,3-a]pyridin-7-yloxy)-1-(3,4-difluorophenyl)cyclohexanol, TFA salt]: the concentration giving a half-maximal response (EC50) worked out at 0.8 nM.

As to `FC(F)(F)COCc1nnc2c(C(F)(F)F)c(O[C@H]3CC[C@H](c4ccccc4)CC3)ccn12` [Example 27, 7-((1r,4r)-4-Phenylcyclohexyloxy)-3-((2,2,2-trifluoroethoxy)methyl)-8-(trifluoromethyl)-[1,2,4]triazolo[4,3-a]pyridine], the EC50 was 0.6 nM.

Regarding `CO[C@]1(c2ccc(F)c(F)c2)CC[C@H](Oc2ccn3c(CC4CC4)nnc3c2C(F)(F)F)CC1` [Example 28, 3-(Cyclopropylmethyl)-7-((1s,4s)-4-(3,4-difluorophenyl)-4-methoxycyclohexyloxy)-8-(trifluoromethyl)-[1,2,4]triazolo[4,3-a]pyridine], the EC50 is 0.7 nM. As to `FC(F)(F)c1c(OCC2(c3ccc(Cl)cc3)CC2)ccn2c(CC3CC3)nnc12` [Example 29, 7-((1-(4-Chlorophenyl)cyclopropyl)methoxy)-3-(cyclopropylmethyl)-8-(trifluoromethyl)-[1,2,4]triazolo[4,3-a]pyridine], the EC50 was 13 nM.

A word on the EC50: it is the concentration at which the effect is half-maximal.
